pKd: −log10 of the molar value.
Molecular target: NT647-MEK1 (MEK1 residues 37–383) (Homo sapiens, UniProt Q02750)
Test: Automated microscale thermophoresis
Format: binding

Chain of NT647-MEK1 (MEK1 residues 37–383) (Q02750 37-383): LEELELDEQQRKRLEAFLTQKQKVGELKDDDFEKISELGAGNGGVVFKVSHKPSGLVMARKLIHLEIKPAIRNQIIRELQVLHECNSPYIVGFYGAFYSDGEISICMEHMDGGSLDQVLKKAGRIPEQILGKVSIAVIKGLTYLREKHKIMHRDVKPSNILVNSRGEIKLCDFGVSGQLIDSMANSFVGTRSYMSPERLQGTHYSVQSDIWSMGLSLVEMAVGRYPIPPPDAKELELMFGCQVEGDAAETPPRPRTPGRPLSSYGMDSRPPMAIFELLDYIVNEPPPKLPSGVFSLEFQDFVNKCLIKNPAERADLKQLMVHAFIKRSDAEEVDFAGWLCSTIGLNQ

Nc1ncnc2c1ncn2[C@@H]1O[C@H](COP(=O)(O)OP(=O)(O)OP(=O)(O)O)[C@@H](O)[C@H]1O [ATP, adenosine triphosphate]
pKd (Kd of ATP in the absence of MgCl2, without MgCl2): 3.85
pKd (Kd of ATP in the presence of MgCl2, MST buffer with 10 mM MgCl2): 5.35
